One may read the IC50 as the concentration needed to halve the response being measured.

The target of test [1] is T1, human V2 receptor (Homo sapiens, UniProt P30518).
T1 construct: expressed in transfected cells; host or cells: CHO K1 (ATCC) expressing firefly luciferase under a CRE-responsive promoter
Briefly: Cellular in vitro assay for determining vasopressin receptor activity, V2 receptor cell line (CRE-luciferase). The class given is cell-based. To be noted: CHO cell line transfected with human V2 receptor; [Arg8]-vasopressin at EC50; compounds of the invention (Table 1A); read-out: IC50 hV2. On the procedure: (§1) The identification of agonists and antagonists of the V1a and V2 vasopressin receptors from humans, rats and dogs as well as the quantification of the activity of the compounds of the invention is carried out using recombinant cell lines. These cell lines originally derive from a hamster's ovary epithelial cell (Chinese Hamster Ovary, CHO K1, ATCC: American Type Culture Collection, Manassas, Va. 20108, USA). The test cell lines constitutively express the human, rat or dog V1a or V2 receptors. In case of the […] V1a receptors, cells are also stably transfected with a modified form of the calcium-sensitive photoproteins aequorin (human and rat V1a) or obelin (dog V1a), which, after reconstitution with the cofactor coelenterazine, emit light when there are increases in free calcium concentrations [Rizzuto R, Simpson A W, Brini M, Pozzan T, Nature 358, 325-327 (1992); Illarionov B A, Bondar V S, Illarionova V A, Vysotski E S, Gene 153 (2), 273-274 (1995)]. The resulting vasopressin receptor cells react to stimulation of the recombinantly expressed V1a receptors by intracellular release of calcium ions, which can be quantified by the resulting photoprotein luminescence. The Gs-coupled V2 receptors are stably transfected into cell lines expressing the gene for firefly luciferase under control of a CRE-responsible promoter. Activation of V2 receptors induces the activation of the CRE-responsive promoter via cAMP increase, thereby inducing the expression of firefly luciferase. The light emitted by photoproteins of V1a cell lines as well as the light emitted by firefly luciferase of V2 cell lines corresponds to the activation or inhibition of the respective vasopressin receptor. The bioluminescence of the cell lines is detected using a suitable luminometer [Milligan G, Marshall F, Rees S, Trends in Pharmacological Sciences 17, 235-237 (1996)].
On the day before the assay, the cells are plated out in culture medium (DMEM/F12, 2% FCS, 2 mM glutamine, 10 mM HEPES) in 384-well microtiter plates and kept in a cell incubator (96% humidity, 5% v/v CO2, 37° C.). […] Upon addition of the cell lysis reagent Triton and the substrate luciferin, luminescence of firefly luciferase is measured in a luminometer.
(§2) Table 1A below lists individual IC50 values for the compounds of the invention (including diastereomeric mixtures as well as separated, enantiopure diastereomers) that were obtained from cell lines transfected with the human V1a or V2 receptor: […]

For test [2], the target named is T2, human V1a receptor (Homo sapiens, UniProt P37288).
T2 construct: expressed in transfected cells; host or cells: CHO K1 (ATCC), also stably transfected with modified aequorin
Briefly: Cellular in vitro assay for determining vasopressin receptor activity, V1a receptor cell line (photoprotein luminescence). The format is cell-based. To be noted: CHO cell line transfected with human V1a receptor; [Arg8]-vasopressin at EC50; compounds of the invention (Table 1A); read-out: IC50 hV1a. On the procedure:
as §1
On the day before the assay, the cells are plated out in culture medium (DMEM/F12, 2% FCS, 2 mM glutamine, 10 mM HEPES, 5 μg/ml coelenterazine) in 384-well microtiter plates and kept in a cell incubator (96% humidity, 5% v/v CO2, 37° C.). On the day of the assay, test compounds in various concentrations are placed for 10 minutes in the wells of the microtiter plate before the agonist [Arg^8]-vasopressin at EC50 concentration is added. The resulting light signal is measured immediately in the luminometer.
as §2

T2 sequence (P37288 whole entry): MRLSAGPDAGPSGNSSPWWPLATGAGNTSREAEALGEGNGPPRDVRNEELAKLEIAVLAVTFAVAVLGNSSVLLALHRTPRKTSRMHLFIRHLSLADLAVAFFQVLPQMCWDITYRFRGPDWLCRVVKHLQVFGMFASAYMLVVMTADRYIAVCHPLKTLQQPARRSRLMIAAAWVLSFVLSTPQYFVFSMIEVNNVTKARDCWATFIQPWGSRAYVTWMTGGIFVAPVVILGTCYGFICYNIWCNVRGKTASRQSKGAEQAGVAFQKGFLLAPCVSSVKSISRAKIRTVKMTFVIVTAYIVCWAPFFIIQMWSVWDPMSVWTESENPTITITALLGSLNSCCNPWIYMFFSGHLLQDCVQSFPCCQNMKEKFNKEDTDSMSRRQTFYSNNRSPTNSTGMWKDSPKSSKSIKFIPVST
T1 sequence (P30518 whole entry): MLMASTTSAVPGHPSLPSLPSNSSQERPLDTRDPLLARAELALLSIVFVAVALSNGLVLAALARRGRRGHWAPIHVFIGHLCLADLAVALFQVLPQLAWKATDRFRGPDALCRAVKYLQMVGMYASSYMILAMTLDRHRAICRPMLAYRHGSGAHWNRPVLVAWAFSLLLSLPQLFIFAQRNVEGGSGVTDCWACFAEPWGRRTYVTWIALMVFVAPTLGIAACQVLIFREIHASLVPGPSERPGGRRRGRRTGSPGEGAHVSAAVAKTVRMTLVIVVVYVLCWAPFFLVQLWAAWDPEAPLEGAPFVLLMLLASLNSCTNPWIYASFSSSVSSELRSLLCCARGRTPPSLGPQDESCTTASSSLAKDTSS

For `CC(O)c1nc(Cn2nc(-c3ccc(Cl)cc3)n(C[C@H](O)C(F)(F)F)c2=O)nn1-c1cc(Cl)cc(Cl)c1` (single isomer, unassigned) [Example 47], the IC50 in test [1] turned out to be 3.7 nM; in test [2] it was 18.9 nM.
The matching figures for `CC(O)c1nc(Cn2nc(-c3ccc(Cl)cc3)n(C[C@H](O)C(F)(F)F)c2=O)nn1-c1cc(Cl)cc(Cl)c1` (single isomer, unassigned) [Example 48]: 2.4 nM and 3.2 nM.
The like results for `CC(O)c1nc(Cn2nc(-c3ccc(Cl)cc3)n(C[C@H](O)C(F)(F)F)c2=O)nn1-c1cc(Cl)ccc1Cl` (single isomer, unassigned) [Example 50] were, in that order, 10 nM and 1.3 nM.
The like results for `CC(O)c1nc(Cn2nc(-c3ccc(Cl)cc3)n(C[C@H](O)C(F)(F)F)c2=O)nn1-c1cc(Cl)ccc1Cl` (single isomer, unassigned) [Example 51] were, in that order, 22.3 nM and 3 nM.
Turning to `CC(O)c1nc(Cn2nc(-c3ccc(Cl)cc3)n(C[C@H](O)C(F)(F)F)c2=O)nn1-c1cccc(Cl)c1F` (single isomer, unassigned) [Example 53], the IC50 in test [1] was 1.8 nM; in test [2] it was 7.9 nM.
The matching figures for `CC(O)c1nc(Cn2nc(-c3ccc(Cl)cc3)n(C[C@H](O)C(F)(F)F)c2=O)nn1-c1cccc(Cl)c1F` (single isomer, unassigned) [Example 54]: 1.6 nM and 39.7 nM.
The like results for `CC(O)c1nc(Cn2nc(-c3ccc(Cl)cc3)n(C[C@H](O)C(F)(F)F)c2=O)nn1-c1cccc(OC(F)F)c1` (single isomer, unassigned) [Example 56] were, in that order, 1.4 nM and 2.4 nM.
Take `CC(O)c1nc(Cn2nc(-c3ccc(Cl)cc3)n(C[C@H](O)C(F)(F)F)c2=O)nn1-c1cccc(OC(F)F)c1` (single isomer, unassigned) [Example 57]: the values for the IC50 in test [1] and in test [2] were 8.2 nM and 38.2 nM, respectively.
The matching figures for `CC(O)c1nc(Cn2nc(-c3ccc(Cl)cc3)n(C[C@H](O)C(F)(F)F)c2=O)nn1-c1cccc(Cl)c1Cl` (single isomer, unassigned) [Example 62]: 0.9 nM and 7.8 nM.
`CC(O)c1nc(Cn2nc(-c3ccc(Cl)cc3)n(C[C@H](O)C(F)(F)F)c2=O)nn1-c1cccc(Cl)c1Cl` (single isomer, unassigned) [Example 63]: the IC50 in test [1] was determined as 1.9 nM; in test [2], 51.6 nM.
The matching figures for `CC(O)c1nc(Cn2nc(-c3ccc(Cl)cc3)n(C[C@H](O)C(F)(F)F)c2=O)nn1-c1cccc(F)c1F` (single isomer, unassigned) [Example 65]: 3.3 nM and 2.5 nM.
For `CC(O)c1nc(Cn2nc(-c3ccc(Cl)cc3)n(C[C@H](O)C(F)(F)F)c2=O)nn1-c1cccc(F)c1F` (single isomer, unassigned) [Example 66], the IC50 is 1.9 nM in test [1] and 4 nM in test [2].
The matching figures for `CC(O)c1nc(Cn2nc(-c3ccc(Cl)cc3)n(C[C@H](O)C(F)(F)F)c2=O)nn1-c1cccc(F)c1Cl` (single isomer, unassigned) [Example 67]: 2.7 nM and 2.1 nM.
The matching figures for `CC(O)c1nc(Cn2nc(-c3ccc(Cl)cc3)n(C[C@H](O)C(F)(F)F)c2=O)nn1-c1cccc(F)c1Cl` (single isomer, unassigned) [Example 68]: 1.3 nM and 3.3 nM.
The matching figures for `Cc1ccccc1-n1nc(Cn2nc(-c3ccc(Cl)cc3)n(C[C@H](O)C(F)(F)F)c2=O)nc1C(C)O` (single isomer, unassigned) [Example 71]: 2.1 nM and 0.6 nM.
`CC(O)c1nc(Cn2nc(-c3ccc(Cl)cc3)n(C[C@H](O)C(F)(F)F)c2=O)nn1-c1ccccc1C(F)(F)F` (single isomer, unassigned) [Example 73]: the IC50 in test [1] was 7 nM; in test [2], 1.1 nM.
